According to patent US20230312587A1, “PTERIDINONE COMPOUNDS AND USES THEREOF” (Vertex Pharmaceutical Incorporated, priority 2018, published 2023):

system: β-catenin-TCF-mediated reporter transcription activity in Colo 205 cells; experiment: Colo 205 reporter assay (TCF/LEF luciferase); format: cell-based; conditions: Colo 205 TCF/LEF luciferase reporter, five hours after addition of compound; read-out: TCF reporter Colo205 IC50
How it was run: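 Luciferase signal from a TCF/LEF-driven reporter, stably integrated in Colo 205 colon cancer cells, was measured 5 h after compound addition.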

IC50 [nM]	SMILES
< 300	Cc1nc(N[C@H]2C[C@@H](Cc3nc(C(F)(F)F)no3)C2)nc2c1NC(=O)[C@H](C(C)C)N2C [Compound 660, (S)-7-isopropyl-4,8-dimethyl-2-(((1s,3R)-3-((3-(trifluoromethyl)-1,2,4-oxadiazol-5-yl)methyl)cyclobutyl)amino)-7,8-dihydropteridin-6(5H)-one]

same assay, conditions: Homo sapiens, COLO 205, 5 h, Colo 205 TCF/LEF luciferase reporter, five hours after addition of compound; read-out: TCF reporter Colo205 IC50

SMILES	IC50 [nM]
Cc1nc(NCc2cnn(Cc3ccc(F)cc3)c2C)nc2c1NC(=O)[C@H](C)N2C [Compound 74, (7S)-2-(((1-(4-fluorobenzyl)-5-methyl-1H-pyrazol-4-yl)methyl)amino)-4,7,8-trimethyl-7,8-dihydropteridin-6(5H)-one]	300 to 1000
Cc1nc(NCc2cnn(CCCc3ccc(C(F)(F)F)nc3)c2)nc2c1NC(=O)[C@H](C)N2C [Compound 492, (S)-4,7,8-trimethyl-2-(((1-(3-(6-(trifluoromethyl)pyridin-3-yl)propyl)-1H-pyrazol-4-yl)methyl)amino)-7,8-dihydropteridin-6(5H)-one]	300 to 1000
CN1C(=O)C2(CC2)N(C)c2nc(NCc3cnn(Cc4ccc(F)cc4)c3)ncc21 [Compound 227, 2′-(((1-(4-fluorobenzyl)-1H-pyrazol-4-yl)methyl)amino)-5′,8′-dimethyl-5′,8′-dihydro-6′H-spiro[cyclopropane-1,7′-pteridin]-6′-one]	300 to 1000
Cc1nc(N[C@H]2CC[C@@H](N(C)c3ccc(C(F)(F)F)cc3)C2)nc2c1NC(=O)[C@H](C(C)C)N2C [Compound 502, (S)-7-isopropyl-4,8-dimethyl-2-(((1S,3R)-3-(methyl(4-(trifluoromethyl)phenyl)amino)cyclopentyl)amino)-7,8-dihydropteridin-6(5H)-one]	1000 to 5000
Cc1nc(C(=O)N2CC(Nc3nc(C)c4c(n3)N(C)[C@@H](C(C)C)C(=O)N4)C2)co1 [Compound 610, (S)-7-isopropyl-4,8-dimethyl-2-((1-(2-methyloxazole-4-carbonyl)azetidin-3-yl)amino)-7,8-dihydropteridin-6(5H)-one]	≥ 5000
Cc1nc(N[C@H]2C[C@@H](Nc3ccc(C(F)(F)F)cn3)C2)nc2c1NC(=O)[C@H](C)N2C [Compound 562, (S)-4,7,8-trimethyl-2-((cis-3-((5-(trifluoromethyl)pyridin-2-yl)amino)cyclobutyl)amino)-7,8-dihydropteridin-6(5H)-one]	300 to 1000
Cc1ccc(O[C@H]2C[C@H](Nc3nc(C)c4c(n3)N(C)[C@@H](C)C(=O)N4)C2)cc1 [Compound 339, (7S)-4,7,8-trimethyl-2-((trans-3-(p-tolyloxy)cyclobutyl)amino)-7,8-dihydropteridin-6(5H)-one]	300 to 1000
Cc1nc(N[C@H]2C[C@H](Oc3ccc(OC(F)(F)F)c(F)c3)C2)nc2c1N(C)C(=O)[C@H](C)N2C [Compound 360, (7S)-2-((trans 3-(3-fluoro-4-(trifluoromethoxy)phenoxy)cyclobutyl)amino)-4,5,7,8-tetramethyl-7,8-dihydropteridin-6(5H)-one]	< 300
CC[C@@]1(C)C(=O)N(C)c2cnc(NCc3cnn(Cc4ccc(F)cc4)c3)nc2N1C [Compound I-226]	< 300

Second part, the compound after the results:

IC50 [nM]	SMILES
< 300	Cc1cc(C(F)(F)F)cc(OC[C@H]2C[C@@H](Nc3nc(C)c4c(n3)N(C)[C@@H](C)C(=O)N4)C2)n1 [Compound 365, (7S)-4,7,8-trimethyl-2-((cis-3-(((6-methyl-4-(trifluoromethyl)pyridin-2-yl)oxy)methyl)cyclobutyl)amino)-7,8-dihydropteridin-6(5H)-one]
< 300	Cc1nc(NCc2cnn([C@@H]3C[C@@H]3c3ccc(F)cc3)c2)nc2c1N(C)C(=O)[C@H](C)N2C [Compound 152, (7S)-2-(((1-((1R,2R)-2-(4-fluorophenyl)cyclopropyl)-1H-pyrazol-4-yl)methyl)amino)-4,5,7,8-tetramethyl-7,8-dihydropteridin-6(5H)-one]
< 300	COc1ccc(Cn2cc(CNc3nc(C)c4c(n3)N(C)[C@@H](C)C(=O)N4)cn2)cc1F [Compound 146, (7S)-2-(((1-(3-fluoro-4-methoxybenzyl)-1H-pyrazol-4-yl)methyl)amino)-4,7,8-trimethyl-7,8-dihydropteridin-6(5H)-one]
< 300	Cc1nc(N[C@H]2C[C@@H](Cn3ccc(Cl)n3)C2)nc2c1NC(=O)[C@H](C(C)C)N2C [Compound 583, (S)-2-((cis-3-((3-chloro-1H-pyrazol-1-yl)methyl)cyclobutyl)amino)-7-isopropyl-4,8-dimethyl-7,8-dihydropteridin-6(5H)-one]
< 300	CCN1C(=O)[C@H](CCO)N(CC)c2nc(NCc3cnn(Cc4cc(F)c(F)c(F)c4)c3)ncc21 [Compound 37, (7S)-5,8-diethyl-7-(2-hydroxyethyl)-2-(((1-(3,4,5-trifluorobenzyl)-1H-pyrazol-4-yl)methyl)amino)-7,8-dihydropteridin-6(5H)-one]
< 300	Cc1nc(NCc2cnn(C3CCc4ccc(F)cc43)c2)nc2c1NC(=O)[C@H](C)N2C (stereo partly drawn) [Compound 117, (7S)-2-(((1-(6-fluoro-2,3-dihydro-1H-inden-1-yl)-1H-pyrazol-4-yl)methyl)amino)-4,7,8-trimethyl-7,8-dihydropteridin-6(5H)-one]
< 300	CCc1noc(C)c1Cn1cc(CNc2nc(C)c3c(n2)N(C)[C@@H](C)C(=O)N3)cn1 [Compound 158, (7S)-2-(((1-((3-ethyl-5-methylisoxazol-4-yl)methyl)-1H-pyrazol-4-yl)methyl)amino)-4,7,8-trimethyl-7,8-dihydropteridin-6(5H)-one]
< 300	CC[C@H]1C(=O)Nc2c(C)nc(N[C@H]3C[C@H](N(C)c4cnc(C(F)(F)F)cn4)C3)nc2N1C [Compound 682, (S)-7-ethyl-4,8-dimethyl-2-((trans-3-(methyl(5-(trifluoromethyl)pyrazin-2-yl)amino)cyclobutyl)amino)-7,8-dihydropteridin-6(5H)-one]
< 300	Cc1nc(NCc2cnn(Cc3cccc(C(F)(F)F)n3)c2)nc2c1NC(=O)[C@H](C)N2C [Compound 184, (7S)-4,7,8-trimethyl-2-(((1-((6-(trifluoromethyl)pyridin-2-yl)methyl)-1H-pyrazol-4-yl)methyl)amino)-7,8-dihydropteridin-6(5H)-one]
< 300	Cc1nc(NCc2cnn(Cc3cnccc3C(F)(F)F)c2)nc2c1NC(=O)[C@H](C)N2C [Compound 182, (7S)-4,7,8-trimethyl-2-(((1-((4-(trifluoromethyl)pyridin-3-yl)methyl)-1H-pyrazol-4-yl)methyl)amino)-7,8-dihydropteridin-6(5H)-one]
< 300	Cc1nc(N[C@H]2C[C@@H](COc3cnc(Cl)c(F)c3)C2)nc2c1NC(=O)[C@H](C)N2C [Compound 367, (7S)-2-((cis-3-(((6-chloro-5-fluoropyridin-3-yl)oxy)methyl)cyclobutyl)amino)-4,7,8-trimethyl-7,8-dihydropteridin-6(5H)-one]
< 300	Cc1nc(NCc2cnn(Cc3ccnc(Cl)c3)c2)nc2c1NC(=O)[C@H](C1CC1)N2C [Compound 608, (S)-2-(((1-((2-chloropyridin-4-yl)methyl)-1H-pyrazol-4-yl)methyl)amino)-7-cyclopropyl-4,8-dimethyl-7,8-dihydropteridin-6(5H)-one]

same assay, conditions: Homo sapiens, COLO 205, 5 h, R-isomer at C2 (corresponding to C2 S-isomer); Colo 205 TCF/LEF luciferase reporter, 5 h; read-out: TCF reporter Colo205 IC50

IC50 [nM]	SMILES
< 300	CCN1C(=O)[C@@H](C)N(C(C)C)c2nc(NCc3cnn(Cc4cc(F)c(F)c(F)c4)c3)ncc21 [Compound I-1463]
1000 to 5000	Cc1nc(NCc2cnn(Cc3ccc(OC(F)F)nc3)c2)nc2c1NC(=O)[C@@H](C(C)C)N2C [Compound I-1642]
